We go through 20 compounds from US20230365554A1, “SUBSTITUTED PYRROLO-PYRIDINONE DERIVATIVES AND THERAPEUTIC USES THEREOF” (The Broad Institute, Inc., priority 2020, published 2023).

For one experiment, the target named is human CSNK1D (Homo sapiens (Human), UniProt P48730). Nature of the experiment: CSNK1D assay (ADP-Glo, 1 μM ATP). The experiment is classed as biochemical. As to conditions: median, Table 2, read-out: CSNK1D IC50 [mol/l] (median). The method, boiled down:
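GST-tagged full-length human CSNK1D (baculovirus/insect cell; typically about 0.5 ng/μL) preincubated with compound 15 min, then reacted 30 min at 22 °C with 1 μM ATP and 30 μM biotinylated peptide (final) in HEPES pH 7.5 buffer. ADP quantified by ADP-Glo luminescence; data normalised to no-inhibitor and no-enzyme controls.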

In the next experiment the target is human CSNK1A1 (Homo sapiens (Human), UniProt P48729). As to the kind of experiment: CSNK1A1 Assay 2 (ADP-Glo, 1 μM ATP). Type of experiment: biochemical. The settings on record: median, Table 2, read-out: CSNK1A1 Assay 2 IC50 [mol/l] (median). The method, boiled down:
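GST-tagged full-length human CSNK1A1 from insect cells, preincubated 15 min with compound, then reacted 30 min at 22° C with 1 μM ATP and 30 μM biotinylated peptide substrate in pH 7.5 HEPES buffer. ADP measured by ADP-Glo luminescence; normalised to no-inhibitor (0%) and no-enzyme (100%) controls.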

Sequence of human CSNK1D (P48730 whole entry): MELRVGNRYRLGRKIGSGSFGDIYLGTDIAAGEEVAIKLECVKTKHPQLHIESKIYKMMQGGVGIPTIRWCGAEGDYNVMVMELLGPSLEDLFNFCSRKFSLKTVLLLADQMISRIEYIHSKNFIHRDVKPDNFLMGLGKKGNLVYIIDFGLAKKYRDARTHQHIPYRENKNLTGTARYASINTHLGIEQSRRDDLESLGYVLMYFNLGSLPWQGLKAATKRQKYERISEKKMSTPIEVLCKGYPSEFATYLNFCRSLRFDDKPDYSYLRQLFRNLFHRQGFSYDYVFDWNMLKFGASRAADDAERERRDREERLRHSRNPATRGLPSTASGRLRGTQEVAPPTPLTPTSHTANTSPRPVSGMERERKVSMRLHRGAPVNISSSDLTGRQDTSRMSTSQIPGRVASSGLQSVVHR
Sequence of human CSNK1A1 (P48729 whole entry): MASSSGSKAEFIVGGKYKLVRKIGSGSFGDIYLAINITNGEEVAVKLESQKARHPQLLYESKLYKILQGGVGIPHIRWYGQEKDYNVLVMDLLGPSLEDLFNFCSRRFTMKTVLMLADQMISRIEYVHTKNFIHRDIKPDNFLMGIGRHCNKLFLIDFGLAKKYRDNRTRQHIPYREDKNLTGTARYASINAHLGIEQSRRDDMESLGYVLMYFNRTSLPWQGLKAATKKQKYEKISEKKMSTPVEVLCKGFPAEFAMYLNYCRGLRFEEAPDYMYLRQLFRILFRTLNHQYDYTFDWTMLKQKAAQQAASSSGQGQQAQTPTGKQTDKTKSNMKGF

On to `C[C@H](C(=O)Nc1cc(-c2[nH]c3ccn(C)c(=O)c3c2Nc2ccccc2)ccn1)c1ccc(F)cc1` (single isomer, unassigned) [Example 26], for which the IC50 on human CSNK1D worked out at 0.022 µM; on human CSNK1A1, 0.0059 µM.

With `C[C@@H](C(=O)Nc1cc(-c2[nH]c3ccn(C)c(=O)c3c2Nc2ccccc2)ccn1)c1ccc(F)cc1` (single isomer, unassigned) [Example 27], the IC50 on human CSNK1D turned out to be 0.028 µM; at human CSNK1A1, 0.021 µM.

As for `Cn1ccc2[nH]c(-c3ccnc(NC(=O)C(CC(F)F)c4ccc(F)cc4)c3)c(Nc3ccccc3)c2c1=O` (single isomer, unassigned) [Example 29, N-[4-(3-anilino-5-methyl-4-oxo-4,5-dihydro-1H-pyrrolo[3,2-c]pyridin-2-yl)pyridin-2-yl]-4,4-difluoro-2-(4-fluorophenyl)butanamide], the IC50 at human CSNK1D worked out at 0.053 µM; at human CSNK1A1, 0.05 µM.

As to `Cn1ccc2[nH]c(-c3ccnc(NC(=O)C(CC(F)F)c4ccc(F)cc4)c3)c(Nc3ccccc3)c2c1=O` (single isomer, unassigned) [Example 30, N-[4-(3-anilino-5-methyl-4-oxo-4,5-dihydro-1H-pyrrolo[3,2-c]pyridin-2-yl)pyridin-2-yl]-4,4-difluoro-2-(4-fluorophenyl)butanamide], the IC50 at human CSNK1D stood at 0.0071 µM; on human CSNK1A1, 0.0037 µM.

Regarding `Cn1cc(CC(F)(F)F)c2[nH]c(-c3ccnc(NC(=O)C(CC(F)F)c4ccc(F)cc4)c3)c(Nc3ccccc3)c2c1=O` (single isomer, unassigned) [Example 36, N-{4-[3-anilino-5-methyl-4-oxo-7-(2,2,2-trifluoroethyl)-4,5-dihydro-1H-pyrrolo[3,2-c]pyridin-2-yl]pyridin-2-yl}-4,4-difluoro-2-(4-fluorophenyl)butanamide], the IC50 at human CSNK1D stood at 0.0076 µM; on human CSNK1A1, 0.0062 µM.

As for `Cn1cc(CC(F)(F)F)c2[nH]c(-c3ccnc(NC(=O)C(CC(F)F)c4ccc(F)cc4)c3)c(Nc3ccccc3)c2c1=O` (single isomer, unassigned) [Example 37, N-{4-[3-anilino-5-methyl-4-oxo-7-(2,2,2-trifluoroethyl)-4,5-dihydro-1H-pyrrolo[3,2-c]pyridin-2-yl]pyridin-2-yl}-4,4-difluoro-2-(4-fluorophenyl)butanamide], the IC50 turned out to be 0.015 µM on human CSNK1D and 0.012 µM on human CSNK1A1.

Take `Cc1cn(C)c(=O)c2c(Nc3ccccc3)c(-c3ccnc(NC(=O)C(C)c4ccc(F)cc4)c3)[nH]c12` (single isomer, unassigned) [Example 40, N-[4-(3-anilino-5,7-dimethyl-4-oxo-4,5-dihydro-1H-pyrrolo[3,2-c]pyridin-2-yl)pyridin-2-yl]-2-(4-fluorophenyl)propanamide]: the IC50 at human CSNK1D stood at 0.019 µM; at human CSNK1A1 it was 0.015 µM.

For `Cc1cn(C)c(=O)c2c(Nc3ccccc3)c(-c3ccnc(NC(=O)C(C)c4ccc(F)cc4)c3)[nH]c12` (single isomer, unassigned) [Example 41, N-[4-(3-anilino-5,7-dimethyl-4-oxo-4,5-dihydro-1H-pyrrolo[3,2-c]pyridin-2-yl)pyridin-2-yl]-2-(4-fluorophenyl)propanamide], the values for the IC50 at human CSNK1D and at human CSNK1A1 were 0.088 µM and 0.1 µM, respectively.

For `CN1CC(CC(F)F)c2[nH]c(-c3ccnc(NC(=O)Cc4ccc(F)cc4)c3)c(Nc3ccccc3)c2C1=O` (single isomer, unassigned) [Example 43, N-{4-[3-anilino-7-(2,2-difluoroethyl)-5-methyl-4-oxo-4,5,6,7-tetrahydro-1H-pyrrolo[3,2-c]pyridin-2-yl]pyridin-2-yl}-2-(4-fluorophenyl)acetamide], the IC50 on human CSNK1D is 0.0043 µM; on human CSNK1A1 it was 0.0028 µM.

Consider `CN1CC(CC(F)F)c2[nH]c(-c3ccnc(NC(=O)Cc4ccc(F)cc4)c3)c(Nc3ccccc3)c2C1=O` (single isomer, unassigned) [Example 44, N-{4-[3-anilino-7-(2,2-difluoroethyl)-5-methyl-4-oxo-4,5,6,7-tetrahydro-1H-pyrrolo[3,2-c]pyridin-2-yl]pyridin-2-yl}-2-(4-fluorophenyl)acetamide], for which the IC50 at human CSNK1D turned out to be 0.0059 µM; on human CSNK1A1, 0.0033 µM.

For the compound `CN1CC(CC(F)(F)F)c2[nH]c(-c3ccnc(NC(=O)Cc4ccc(F)cc4)c3)c(Nc3cscn3)c2C1=O` (single isomer, unassigned) [Example 47, 2-(4-fluorophenyl)-N-{4-[(7R or S)-5-methyl-4-oxo-3-(1,3-thiazol-4-ylamino)-7-(2,2,2-trifluoroethyl)-4,5,6,7-tetrahydro-1H-pyrrolo[3,2-c]pyridin-2-yl]pyridin-2-yl}acetamide], the results for the IC50 at human CSNK1D and on human CSNK1A1 were 0.0084 µM and 0.0034 µM, respectively.

As for `CN1CC(CC(F)(F)F)c2[nH]c(-c3ccnc(NC(=O)Cc4ccc(F)cc4)c3)c(Nc3cscn3)c2C1=O` (single isomer, unassigned) [Example 48, 2-(4-fluorophenyl)-N-{4-[(7R or S)-5-methyl-4-oxo-3-(1,3-thiazol-4-ylamino)-7-(2,2,2-trifluoroethyl)-4,5,6,7-tetrahydro-1H-pyrrolo[3,2-c]pyridin-2-yl]pyridin-2-yl}acetamide], the IC50 on human CSNK1D was determined as 0.032 µM; at human CSNK1A1 it was 0.0075 µM.

On to `CN1CC(CC2CC2)c2[nH]c(-c3ccnc(NC(=O)Cc4ccc(F)cc4)c3)c(Nc3cscn3)c2C1=O` (single isomer, unassigned) [Example 50, N-{4-[(7R or S)-7-(cyclopropylmethyl)-5-methyl-4-oxo-3-(1,3-thiazol-4-ylamino)-4,5,6,7-tetrahydro-1H-pyrrolo[3,2-c]pyridin-2-yl]pyridin-2-yl}-2-(4-fluorophenyl)acetamide], for which the IC50 on human CSNK1D came to 0.0099 µM; at human CSNK1A1 it was 0.0051 µM.

For `CN1CC(CC2CC2)c2[nH]c(-c3ccnc(NC(=O)Cc4ccc(F)cc4)c3)c(Nc3cscn3)c2C1=O` (single isomer, unassigned) [Example 51, N-{4-[(7R or S)-7-(cyclopropylmethyl)-5-methyl-4-oxo-3-(1,3-thiazol-4-ylamino)-4,5,6,7-tetrahydro-1H-pyrrolo[3,2-c]pyridin-2-yl]pyridin-2-yl}-2-(4-fluorophenyl)acetamide], the IC50 worked out at 0.057 µM at human CSNK1D and 0.02 µM at human CSNK1A1.

`CN1CC(CC(F)(F)F)c2[nH]c(-c3ccnc(NC(=O)C(CC(F)F)c4ccc(F)cc4)c3)c(Nc3cscn3)c2C1=O` (single isomer, unassigned) [Example 53, (2R or S)-4,4-difluoro-2-(4-fluorophenyl)-N-{4-[(7R or S)-5-methyl-4-oxo-3-[(1,3-thiazol-4-yl)amino]-7-(2,2,2-trifluoroethyl)-4,5,6,7-tetrahydro-1H-pyrrolo[3,2-c]pyridin-2-yl]pyridin-2-yl}butanamide]: the IC50 stood at 0.035 µM on human CSNK1D and 0.021 µM at human CSNK1A1.

Turning to `CN1CC(CC(F)(F)F)c2[nH]c(-c3ccnc(NC(=O)C(CC(F)F)c4ccc(F)cc4)c3)c(Nc3cscn3)c2C1=O` (single isomer, unassigned) [Example 54, (2R or S)-4,4-difluoro-2-(4-fluorophenyl)-N-{4-[(7R or S)-5-methyl-4-oxo-3-[(1,3-thiazol-4-yl)amino]-7-(2,2,2-trifluoroethyl)-4,5,6,7-tetrahydro-1H-pyrrolo[3,2-c]pyridin-2-yl]pyridin-2-yl}butanamide], the IC50 at human CSNK1D was found to be 0.004 µM; at human CSNK1A1, 0.003 µM.

In the case of `CN1CC(CC(F)(F)F)c2[nH]c(-c3ccnc(NC(=O)C(CC(F)F)c4ccc(F)cc4)c3)c(Nc3cscn3)c2C1=O` (single isomer, unassigned) [Example 55, (2R or S)-4,4-difluoro-2-(4-fluorophenyl)-N-{4-[(7R or S)-5-methyl-4-oxo-3-[(1,3-thiazol-4-yl)amino]-7-(2,2,2-trifluoroethyl)-4,5,6,7-tetrahydro-1H-pyrrolo[3,2-c]pyridin-2-yl]pyridin-2-yl}butanamide], the figures for the IC50 on human CSNK1D and at human CSNK1A1 were 0.11 µM and 0.059 µM, respectively.

As for `CN1CC(CC(F)(F)F)c2[nH]c(-c3ccnc(NC(=O)C(CC(F)F)c4ccc(F)cc4)c3)c(Nc3cscn3)c2C1=O` (single isomer, unassigned) [Example 56, (2R or S)-4,4-difluoro-2-(4-fluorophenyl)-N-{4-[(7R or S)-5-methyl-4-oxo-3-[(1,3-thiazol-4-yl)amino]-7-(2,2,2-trifluoroethyl)-4,5,6,7-tetrahydro-1H-pyrrolo[3,2-c]pyridin-2-yl]pyridin-2-yl}butanamide], the results for the IC50 on human CSNK1D and at human CSNK1A1 were 0.013 µM and 0.0077 µM, respectively.

Turning to `CC1CN(C)C(=O)c2c1[nH]c(-c1ccnc(NC(=O)Cc3ccc(F)cc3)c1)c2Nc1ccccc1` (single isomer, unassigned; (+)) [Example 8, (+)-N-{4-[3-anilino-5,7-dimethyl-4-oxo-4,5,6,7-tetrahydro-1H-pyrrolo[3,2-c]pyridin-2-yl]pyridin-2-yl}-2-(4-fluorophenyl)acetamide], the IC50 was determined as 0.026 µM on human CSNK1D and 0.012 µM on human CSNK1A1.

As for `O=C1N[C@@H]2CCC[C@@H]2c2[nH]c(-c3ccnc(NC(=O)C(CC(F)F)c4ccc(F)cc4)c3)c(Nc3ccccc3)c21` (single isomer, unassigned; (+)) [Example 22, (+)-(2R or S)—N-{4-[cis-3-anilino-4-oxo-1,4,5,5a,6,7,8,8a-octahydrocyclopenta[b]pyrrolo[2,3-d]pyridin-2-yl]pyridin-2-yl}-4,4-difluoro-2-(4-fluorophenyl)butanamide], the IC50 at human CSNK1D turned out to be 0.0063 µM; at human CSNK1A1, 0.0054 µM.
